We go through five compounds from publication PMC2912430 (Biochemistry, 2010).

In test [1] the target is T1, Thermus thermophilus IDI-2 (Thermus thermophilus, UniProt Q53W52). The test is described as follows: Acid lability assay, inhibition of the isomerization of IPP to DMAPP by IDI-2. In kind it is biochemical. The following applies: for Type of inhibition: isomerization of IPP to DMAPP catalyzed by IDI-2.
In test [2] the target is T2, Escherichia coli IDI-1 (Escherichia coli, UniProt Q46822). In words: Acid lability assay, inhibition of the isomerization of IPP to DMAPP by IDI-1. In kind it is biochemical. Conditions: for Type of inhibition: isomerization of IPP to DMAPP catalyzed by IDI-1.
T2 sequence (Q46822 whole entry): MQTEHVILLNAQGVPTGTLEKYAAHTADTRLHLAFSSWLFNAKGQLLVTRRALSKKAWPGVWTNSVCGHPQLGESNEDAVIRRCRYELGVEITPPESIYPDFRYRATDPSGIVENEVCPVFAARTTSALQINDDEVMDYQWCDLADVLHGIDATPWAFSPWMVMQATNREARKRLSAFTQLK
In test [3] the target is T1, Thermus thermophilus IDI-2. In words: Product studies by 1H NMR, incubation with IDI-2. Conditions: for Isomerization (turnover as substrate) by NMR: IDI-2, 37 °C, spectra at one-hour intervals over 12 h; for Reactivity relative to the natural substrates (times less reactive): IDI-2, estimate based on NMR studies. The format is biochemical.
For test [4], the target named is T2, Escherichia coli IDI-1. The following applies: cited from earlier work.
The target in test [5] is T1, Thermus thermophilus IDI-2. The following applies: cited from earlier work.
A further test has as its system IDI-1. Conditions: positively charged ammonium group at physiological pH; cited from earlier work.

Several values for one entry are separate records, joined by “and”; a condition that tells them apart may be missing. Equal entries are not always repeated.

For `C#CCCOP(=O)(O)OP(=O)(O)O` [1-OPP, 3-Butyn-1-yl diphosphate], in test [1], the IC50 (commonly the midpoint of a concentration-inhibition curve) was roughly 50 µM and the Type of inhibition entry was “competitive inhibitors”. At Escherichia coli IDI-1 [2], the half-maximal inhibitory concentration (IC50) was roughly 200 µM and the Type of inhibition result is listed as “competitive inhibitors”. For the same compound, in test [3], the “Isomerization (turnover as substrate) by NMR” value was “no evidence was seen for isomerization” and the “Reactivity relative to the natural substrates (times less reactive)” value was “at least 1000 times”.
With `C=C=CCOP(=O)(O)OP(=O)(O)O` [2-OPP, 2,3-Butadien-1-yl diphosphate], in test [1], the IC50 is roughly 50 µM and the Type of inhibition result is reported as “competitive inhibitors”. In addition, on Escherichia coli IDI-1 [2], the IC50 is roughly 200 µM and the Type of inhibition result was “competitive inhibitors”. The inhibitory constant (Ki) – broadly, a measure of affinity in units of concentration, obtained from inhibition or displacement – on Escherichia coli IDI-1 [2] (KI, IDI-1, acid lability assay, competitive inhibition) is 49 µM and 31 µM. In test [3], the “Isomerization (turnover as substrate) by NMR” value is “no evidence was seen for isomerization” and the “Reactivity relative to the natural substrates (times less reactive)” value is listed as “at least 1000 times”.
In the case of `CC(C)=CCOP(=O)(O)OP(=O)(O)O` [DMAPP, dimethylallyl diphosphate], at Escherichia coli IDI-1 [4], the Km (commonly the concentration of substrate that gives half-maximal velocity) is 14 µM.
Turning to `C=C(C)CCOP(=O)(O)OP(=O)(O)O` [IPP, isopentenyl diphosphate], the Km on Escherichia coli IDI-1 [4] was 7.9 µM; in test [5], 5.6 µM.
`CN(C)CCOP(=O)(O)OP(=O)(O)O` [N,N-Dimethyl-2-amino-1-ethyl diphosphate]: the “Affinity for IDI-1” value with IDI-1 is “sub-nanomolar affinity”.
